Experiment: Solubility of the API
Format: physicochemical
Settings: water and a buffer salt solution with pH 1.0-pH 6.8

Solubility: insoluble
SMILES: Cn1c(C(=O)N2CC(F)(F)C2)cc2ccc(-c3nccc(Nc4ccc(-c5cn[nH]c5)cc4)n3)cc21 [compound of formula (IV), [6-[4-[[4-(1H-pyrazol-4-yl)phenyl]amino]pyrimidin-2-yl]-1-methyl-1H-indole-2-yl](3,3-difluoroazetidin-1-yl)methanone]
